Laboratory results reported in ChEMBL document CHEMBL3217447, “Biosynthetic gene cluster and antimicrobial activity of the elfamycin antibiotic factumycin” (2012).
Converted amounts (≈) assume the structure as drawn.

Legend:
Format in all cases: functional
[1] = tested on: Acinetobacter baumannii; assay: Antibacterial activity against Acinetobacter baumannii mrH5 assessed as growth inhibition
[2] = tested on: Acinetobacter baumannii; assay: Antibacterial activity against Acinetobacter baumannii GDW787 assessed as growth inhibition
[3] = tested on: Pseudomonas aeruginosa; assay: Antibacterial activity against Pseudomonas aeruginosa GDW788 assessed as growth inhibition
[4] = tested on: Acinetobacter baumannii; assay: Antibacterial activity against Acinetobacter baumannii ATCC 17978 by microdilution checkerboard method in presence of tetracycline
[5] = tested on: Pseudomonas aeruginosa; assay: Antibacterial activity against Pseudomonas aeruginosa PAO1 by microdilution checkerboard method in presence of tetracycline
[6] = tested on: Klebsiella pneumoniae; assay: Antibacterial activity against Klebsiella pneumoniae by microdilution checkerboard method in presence of tetracycline
[7] = tested on: Acinetobacter baumannii; assay: Antibacterial activity against Acinetobacter baumannii ATCC 17978 assessed as growth inhibition
[8] = tested on: Staphylococcus aureus; assay: Antibacterial activity against Staphylococcus aureus ATCC 29213 assessed as growth inhibition
[9] = tested on: Escherichia coli; assay: Antibacterial activity against Escherichia coli […] by microdilution checkerboard method in presence of tetracycline
[10] = tested on: Staphylococcus aureus; assay: Antibacterial activity against Staphylococcus aureus CMRSA5 assessed as growth inhibition
[11] = tested on: Pseudomonas aeruginosa; assay: Antibacterial activity against Pseudomonas aeruginosa GDW787 assessed as growth inhibition
[12] = tested on: Pseudomonas aeruginosa; assay: Antibacterial activity against Pseudomonas aeruginosa GDW789 assessed as growth inhibition
[13] = tested on: Staphylococcus aureus; assay: Antibacterial activity against Staphylococcus aureus CMRSA7 assessed as growth inhibition
[14] = tested on: Enterococcus faecalis; assay: Antibacterial activity against Enterococcus faecalis ATCC 51299 assessed as growth inhibition
[15] = tested on: Klebsiella pneumoniae; assay: Antibacterial activity against Klebsiella pneumoniae GDW915 assessed as growth inhibition
[16] = tested on: Acinetobacter baumannii; assay: Antibacterial activity against Acinetobacter baumannii mrH4 assessed as growth inhibition
[17] = tested on: Klebsiella pneumoniae; assay: Antibacterial activity against Klebsiella pneumoniae GDW917 assessed as growth inhibition
[18] = tested on: Escherichia coli; assay: Antibacterial activity against Escherichia coli GDW914 assessed as growth inhibition
[19] = tested on: Acinetobacter baumannii; assay: Antibacterial activity against Acinetobacter baumannii B00636584 assessed as growth inhibition
[20] = tested on: Acinetobacter baumannii; assay: Antibacterial activity against Acinetobacter baumannii mrH3 assessed as growth inhibition
[21] = tested on: Escherichia coli; assay: Antibacterial activity against Escherichia coli GDW918 assessed as growth inhibition
[22] = tested on: Acinetobacter baumannii; assay: Antibacterial activity against Acinetobacter baumannii mrH4 by microdilution checkerboard method in presence of tetracycline
[23] = tested on: Acinetobacter baumannii; assay: Antibacterial activity against Acinetobacter baumannii B00919434 assessed as growth inhibition
[24] = tested on: Escherichia coli; assay: Antibacterial activity against Escherichia coli ATCC 25922 assessed as growth inhibition
[25] = tested on: Staphylococcus aureus; assay: Antibacterial activity against Staphylococcus aureus CMRSA6 assessed as growth inhibition
[26] = tested on: Enterococcus faecalis; assay: Antibacterial activity against Enterococcus faecalis ATCC 29212 by microdilution checkerboard method in presence of tetracycline
[27] = tested on: Staphylococcus aureus; assay: Antibacterial activity against Staphylococcus aureus ATCC 29213 by microdilution checkerboard method in presence of tetracycline
[28] = tested on: Acinetobacter baumannii; assay: Antibacterial activity against Acinetobacter baumannii GDW786 assessed as growth inhibition
[29] = tested on: Pseudomonas aeruginosa; assay: Antibacterial activity against Pseudomonas aeruginosa GDW790 assessed as growth inhibition
[30] = tested on: Pseudomonas aeruginosa; assay: Antibacterial activity against Pseudomonas aeruginosa PAO1 assessed as growth inhibition
[31] = tested on: Escherichia coli; assay: Antibacterial activity against Escherichia coli GDW916 assessed as growth inhibition
[32] = tested on: Enterococcus faecalis; assay: Antibacterial activity against Enterococcus faecalis ATCC 29212 assessed as growth inhibition

## C/C=C\C=C\[C@@H]1O[C@](O)([C@H](CC)C(=O)NC/C=C/C=C(\C)[C@@H](OC)[C@@H](C)C(O)[C@@H](O)/C=C/C=C/C=C/C=C(\C)C(=O)c2c(O)ccn(C)c2=O)C[C@H](O)C1(C)C (some centres not stated)
[1]
  MIC: 8 µg/mL (≈ 10.3 µM)
[2]
  MIC: 128 µg/mL (≈ 164 µM)
[3]
  MIC: 128 µg/mL (≈ 164 µM)
[4]
  fractional inhibitory concentration index (FICI): 2
[5]
  fractional inhibitory concentration index (FICI): 2
[6]
  fractional inhibitory concentration index (FICI): 0.5
[7]
  MIC: 32 µg/mL (≈ 41.1 µM)
[8]
  MIC: 32 µg/mL (≈ 41.1 µM)
[9]
  fractional inhibitory concentration index (FICI): 2
[10]
  MIC: > 128 µg/mL
[11]
  MIC: 128 µg/mL (≈ 164 µM)
[12]
  MIC: > 128 µg/mL
[13]
  MIC: > 128 µg/mL
[14]
  MIC: 64 µg/mL (≈ 82.2 µM)
[15]
  MIC: > 128 µg/mL
[16]
  MIC: 8 µg/mL (≈ 10.3 µM)
[17]
  MIC: 128 µg/mL (≈ 164 µM)
[18]
  MIC: 128 µg/mL (≈ 164 µM)
[19]
  MIC: 16 µg/mL (≈ 20.5 µM)
[20]
  MIC: 16 µg/mL (≈ 20.5 µM)
[21]
  MIC: 128 µg/mL (≈ 164 µM)
[22]
  fractional inhibitory concentration index (FICI): 0.25
[23]
  MIC: 8 µg/mL (≈ 10.3 µM)
[24]
  MIC: 64 µg/mL (≈ 82.2 µM)
[25]
  MIC: > 128 µg/mL
[26]
  fractional inhibitory concentration index (FICI): 0.375
[27]
  fractional inhibitory concentration index (FICI): 2
[28]
  MIC: 128 µg/mL (≈ 164 µM)
[29]
  MIC: 128 µg/mL (≈ 164 µM)
[30]
  MIC: 128 µg/mL (≈ 164 µM)
[31]
  MIC: 128 µg/mL (≈ 164 µM)
[32]
  MIC: 16 µg/mL (≈ 20.5 µM)
